# Measured values taken from patent publication US20060069132A1, “Azolecarboxamide herbicides” (priority 2004, published 2006).
# Experiments:
# [1] = system: barnyardgrass; test: Test A pre-/postemergence herbicide test; format: in vivo, Echinochloa crus-galli
# In short: (§1)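 Greenhouse injury scoring (0–100, complete control = 100) at approximately ten days follows simultaneous pre- and postemergence application. Soil received a directed spray after seeding; seedlings of 2–10 cm at the one- to two-leaf stage were sprayed to runoff.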
# [2] = system: giant foxtail; test: Test B pre-/postemergence herbicide test; format: in vivo, Setaria faberi
# In short: (§2)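 Pre: seeds sown, then sprayed. Post: 1–4-leaf plants (2–18 cm) sprayed at the same time. Paddy: flooded, treated at 2-leaf stage. Formulation: non-phytotoxic solvent with surfactant. Greenhouse 13–15 days; visual 0–100 score relative to controls.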
# [3] = system: cocklebur; test: Test B pre-/postemergence herbicide test; format: in vivo, Xanthium strumarium
# In short: (§3)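 Seeds were planted and treated preemergence with compounds formulated in a non-phytotoxic solvent mixture containing surfactant, while plants at the 1- to 4-leaf stage (2 to 18 cm) received postemergence sprays. Flooded paddy plants were grown to the 2-leaf stage. After 13 to 15 days in a greenhouse, injury was visually rated 0–100 against untreated controls.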
# [4] = system: barnyardgrass; test: Test B flooded paddy test; format: in vivo, Echinochloa crus-galli; details: 1000 g ai/ha, visual rating, scale 0 to 100 (0 no effect, 100 complete control), 13 to 15 days
# In short: (§4)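 Postemergence plants were sprayed with formulated test chemicals at 2 to 18 cm height (1- to 4-leaf stage); paddy species were grown to the 2-leaf stage. After 13 to 15 days in a greenhouse, injury was rated visually against untreated controls on a 0–100 scale (0 = no effect, 100 = complete control).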
# [5] = system: velvetleaf; test: Test B pre-/postemergence herbicide test; format: in vivo, Abutilon theophrasti
# In short: as §2
# [6] = system: morningglory; test: Test A pre-/postemergence herbicide test; format: in vivo, Ipomoea spp.
# In short: as §1
# [7] = system: large crabgrass; test: Test A pre-/postemergence herbicide test; format: in vivo, Digitaria sanguinalis
# In short: as §1
# [8] = system: pigweed; test: Test B pre-/postemergence herbicide test; format: in vivo, Amaranthus retroflexus
# In short: as §2
# [9] = system: morningglory; test: Test B pre-/postemergence herbicide test; format: in vivo, Ipomoea coccinea
# In short: as §3
# [10] = system: corn; test: Test B pre-/postemergence herbicide test; format: in vivo, Zea mays
# In short: as §2
# [11] = system: lambsquarters; test: Test B pre-/postemergence herbicide test; format: in vivo, Chenopodium album
# In short: as §2
# [12] = system: wheat; test: Test B postemergence herbicide test; format: in vivo, Triticum aestivum; set-up: key to Wheat plant response rating: 0 = no effect, 100 = complete control; details: scale 0 (no effect) to 100 (complete control)
# In short: (§5)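 Each value is a visual 0–100 response rating taken against controls 13 to 15 days after treatment in the greenhouse. Plants received formulated chemical postemergence at the 1- to 4-leaf stage or, in flooded paddy, at the 2-leaf stage.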
# [13] = system: large crabgrass; test: Test B pre-/postemergence herbicide test; format: in vivo, Digitaria sanguinalis
# In short: as §2
# [14] = system: redroot pigweed; test: Test A pre-/postemergence herbicide test; format: in vivo, Amaranthus retroflexus
# In short: as §1
# [15] = system: barnyardgrass; test: Test B pre-/postemergence herbicide test; format: in vivo, Echinochloa crus-galli
# In short: as §3
# [16] = system: small flower umbrella sedge; test: Test B flooded paddy test; format: in vivo, Cyperus difformis; details: 1000 g ai/ha, visual rating, scale 0 to 100 (0 no effect, 100 complete control), 13 to 15 days
# In short: as §4
# [17] = system: rice; test: Test B flooded paddy test; format: in vivo, Oryza sativa; details: 1000 g ai/ha, visual rating, scale 0 to 100 (0 no effect, 100 complete control), 13 to 15 days
# In short: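 Plants grow to 1- to 4-leaf stage (2–18 cm) for postemergence spraying, or to 2-leaf stage for the paddy test. Formulated compound is applied. Greenhouse holding lasts 13–15 days. Response is scored visually relative to controls, 0 no effect to 100 complete control; a dash means no result.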
# [18] = system: Surinam grass; test: Test B pre-/postemergence herbicide test; format: in vivo, Urochloa decumbens
# In short: as §2
# [19] = system: giant foxtail; test: Test A pre-/postemergence herbicide test; format: in vivo, Setaria faberi
# In short: as §1
# [20] = system: velvetleaf; test: Test A pre-/postemergence herbicide test; format: in vivo, Abutilon theophrasti
# In short: as §1
# [21] = system: blackgrass; test: Test B postemergence herbicide test; format: in vivo, Alopecurus myosuroides; details: scale 0 (no effect) to 100 (complete control)
# In short: as §4
# [22] = system: wild oat; test: Test B postemergence herbicide test; format: in vivo, Avena fatua; details: scale 0 (no effect) to 100 (complete control)
# In short: as §5
# [23] = system: ducksalad; test: Test B flooded paddy test; format: in vivo, Heteranthera limosa; details: 1000 g ai/ha, visual rating, scale 0 to 100 (0 no effect, 100 complete control), 13 to 15 days
# In short: as §4
# [24] = Postemergence, 125 g ai/ha, 0 to 100 scale, 0 no effect, 100 complete control
# [25] = Postemergence, 500 g ai/ha, 0 to 100 scale, 0 no effect, 100 complete control
# [26] = Preemergence, 500 g ai/ha, visual rating, 0 to 100 scale (0 no effect, 100 complete control)
# [27] = preemergence, 125 g ai/ha, visual injury, 0 to 100 scale (0 no effect, 100 complete control)
# [28] = 500 g ai/ha, visual rating 0-100, 0 no effect, 100 complete control, preemergence
# [29] = Postemergence, 500 g ai/ha, visual rating after 13 to 15 days, scale 0 (no effect) to 100 (complete control)
# [30] = postemergence, 125 g ai/ha, visual rating, scale 0 (no effect) to 100 (complete control)
# [31] = preemergence, 125 g ai/ha, 0 to 100 scale, 0 is no effect, 100 is complete control
# [32] = Postemergence, 500 g ai/ha, visual rating after 13 to 15 days
# [33] = postemergence, 125 g ai/ha, visual rating
structure (smiles),measurement,setting,value
CC(=NO)c1cccc(NC(=O)c2cc(C(C)(C)C)nn2C(C)C)c1 [Compound 110],Barnyardgrass plant response rating,[1]; [24],30
same,Barnyardgrass plant response rating,[1]; [25],30
same,Barnyardgrass plant response rating,[1]; [26],5
same,Barnyardgrass plant response rating,[1]; [27],10
same,"Plant response rating, Foxtail, Giant",[2]; [28],20
same,"Plant response rating, Foxtail, Giant",[2]; [29],10
same,"Foxtail, Giant plant response rating",[2]; [30],10
same,"Plant response rating, Foxtail, Giant",[2]; [31],10
same,"Plant response rating, Cocklebur",[3]; [28],10
same,"Plant response rating, Cocklebur",[3]; [29],40
same,Cocklebur plant response rating,[3]; [30],10
same,"Plant response rating, Cocklebur",[3]; [31],0
same,Barnyardgrass plant response rating,[4],30
same,"Plant response rating, Velvetleaf",[5]; [28],10
same,"Plant response rating, Velvetleaf",[5]; [29],40
same,Velvetleaf plant response rating,[5]; [30],30
same,"Plant response rating, Velvetleaf",[5]; [31],0
same,Morningglory plant response rating,[6]; [24],0
same,Morningglory plant response rating,[6]; [25],10
same,Morningglory plant response rating,[6]; [26],20
same,Morningglory plant response rating,[6]; [27],10
same,"Crabgrass, Large plant response rating",[7]; [24],25
same,"Crabgrass, Large plant response rating",[7]; [25],30
same,"Crabgrass, Large plant response rating",[7]; [26],20
same,"Crabgrass, Large plant response rating",[7]; [27],15
same,"Plant response rating, Pigweed",[8]; [28],10
same,"Plant response rating, Pigweed",[8]; [29],50
same,Pigweed plant response rating,[8]; [30],20
same,"Plant response rating, Pigweed",[8]; [31],0
same,"Plant response rating, Morningglory",[9]; [28],60
same,"Plant response rating, Morningglory",[9]; [29],30
same,Morningglory plant response rating,[9]; [30],20
same,"Plant response rating, Morningglory",[9]; [31],20
same,"Plant response rating, Corn",[10]; [28],0
same,"Plant response rating, Corn",[10]; [29],20
same,Corn plant response rating,[10]; [30],10
same,"Plant response rating, Corn",[10]; [31],0
same,"Plant response rating, Lambsquarters",[11]; [28],90
same,"Plant response rating, Lambsquarters",[11]; [29],60
same,Lambsquarters plant response rating,[11]; [30],40
same,"Plant response rating, Lambsquarters",[11]; [31],20
same,"Plant response rating, Wheat",[12]; [32],30
same,Wheat plant response rating,[12]; [33],10
same,"Plant response rating, Crabgrass, Large",[13]; [28],100
same,"Plant response rating, Crabgrass, Large",[13]; [29],20
same,"Crabgrass, Large plant response rating",[13]; [30],10
same,"Plant response rating, Crabgrass, Large",[13]; [31],80
same,Pigweed plant response rating,[14]; [24],40
same,Pigweed plant response rating,[14]; [25],50
same,Pigweed plant response rating,[14]; [26],10
same,Pigweed plant response rating,[14]; [27],10
same,"Plant response rating, Barnyardgrass",[15]; [28],10
same,"Plant response rating, Barnyardgrass",[15]; [29],20
same,Barnyardgrass plant response rating,[15]; [30],10
same,"Plant response rating, Barnyardgrass",[15]; [31],10
same,"Sedge, Umbrella plant response rating",[16],20
same,Rice plant response rating,[17],20
same,"Plant response rating, Surinam Grass",[18]; [28],10
same,"Plant response rating, Surinam Grass",[18]; [29],30
same,Surinam Grass plant response rating,[18]; [30],20
same,"Plant response rating, Surinam Grass",[18]; [31],10
same,"Foxtail, Giant plant response rating",[19]; [24],20
same,"Foxtail, Giant plant response rating",[19]; [25],25
same,"Foxtail, Giant plant response rating",[19]; [26],0
same,"Foxtail, Giant plant response rating",[19]; [27],0
same,Velvetleaf plant response rating,[20]; [24],10
same,Velvetleaf plant response rating,[20]; [25],10
same,Velvetleaf plant response rating,[20]; [26],10
same,Velvetleaf plant response rating,[20]; [27],10
same,"Plant response rating, Blackgrass",[21]; [32],0
same,Blackgrass plant response rating,[21]; [33],0
same,"Plant response rating, Oat, Wild",[22]; [32],0
same,"Oat, Wild plant response rating",[22]; [33],0
same,Ducksalad plant response rating,[23],0
